Experimental data as given in patent US7842660B2, “4-hepten-2-yl salicylate and its use as fragrance ingredient” (Givaudan SA, priority 2004, dated 2010).

System: panel of trained evaluators
Assay: Determination of the GC-odor threshold values (gas chromatograph with sniff port)
Settings: for odor threshold value, geometric mean: GC sniff port, absolute amount of compound delivered at the sniff port, identical conditions
Excerpt: As used herein “odor threshold value” means the lowest concentration of a vapor in the air which can be detected by smell. Generally speaking, it can be said that a compound with a low odor threshold value is more powerful than a compound with a high odor threshold value and thus allows the use of a very low concentration in a fragrance composition to achieve an olfactory effect. According to standard procedures known to the person skilled in the art, threshold values for volatile perfumery compounds are determined on a gas chromatograph equipped with a sniff port by a panel of trained evaluators. The lowest concentration smelled by each panelist is recorded as the individual threshold value expressed in ng (absolute amount of compound delivered at the sniff port). By way of comparison, there were also tested (Z)-2-methyl-3-hexen-1-yl salicylate and (Z)-3-hexen-1-yl 2-hydroxy-3-methylbenzoate. The objective was to show the considerable effect exerted by the position of a substituent. Under identical conditions the odor threshold value for the individual compounds was measured.

| Compound | odor threshold of the (Z)-isomer relative to the (E)-isomer (times lower) ((Z)- vs (E)-4-hepten-2-yl salicylate) | odor threshold value, geometric mean [ng] |
| --- | --- | --- |
| CC/C=C\CC(C)OC(=O)c1ccccc1O (centres unmarked) [(Z)-4-Hepten-2-yl salicylate] | about 10 times | 0.77 |
| CC/C=C\CCOC(=O)c1cccc(C)c1O [(Z)-3-Hexen-1-yl 2-hydroxy-3-methylbenzoate] | – | 201 |
| CC/C=C\C(C)COC(=O)c1ccccc1O (centres unmarked) [(Z)-2-Methyl-3-hexen-1-yl salicylate] | – | 10 |
| CC/C=C\CCOC(=O)c1ccccc1O [(Z)-3-Hexen-1-yl salicylate] | – | 0.92 |
